Data as given in US9175045B2, “Peptidomimetic macrocycles” (Aileron Therapeutics, Inc., priority 2008, dated 2015).
Numbered stars: 1 amine (or outer) side, 2 acyl side, 3 side chain; on linkers, the order of the positions; unused ones are H or OH. Bridge positions count the residues as written; N and C are the ends. Square brackets hold non-standard residues; d marks the D form. Peptide text beside a SMILES is read from it. ξ: configuration not given here. ξαMeNle(6-ylidene) = CC(CCCC=[*:3])(N[*:1])C(=O)[*:2]

Key:
[1] = test system: Jurkat cell line; type: cell-based; conditions: 24 h
In short: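 Jurkat E6-1 cells in Opti-MEM, serum-free or with 2% or 10% human serum, were treated 24 h at 37° C. with crosslinked polypeptides: final 0.6-20 μM serum-free, 3.125-100 μM with serum. Viability measured by CellTiter-Glo luminescence; Triton X-100 and DMSO-only wells served as controls.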

[2] = target: human serum proteins; experiment: Apparent affinity to human serum proteins (Kd*) by EC50 shift analysis; type: in vitro ADME; conditions: nonlinear regression of EC50 shift with serum, n = 1, P = 700 μM for 100% serum
In short: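 Kd* fitted by nonlinear regression of EC50 shifts across increasing serum concentrations. Shift attributed entirely to HSA (P = 700 µM at 100% serum, 70 µM at 10%), with 1:1 binding stoichiometry fixed. Whole-blood EC′50 estimated with P = 700 µM.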

[3] = Estimated free fraction in blood, calculated from Kd* with [HSA]total 700 μM; type: in vitro ADME; conditions: human; [HSA]total set at 700 μM; read-out: Free Fraction est. in blood
Procedure: The free fraction in blood is estimated per the following equation, as derived by Trainor, Expert Opin. Drug Disc., 2007, 2(1):51-64, where [HSA]total is set at 700 μM. [formula]

EC50 [1]: 2.4 µM
Kd [2]: 0.6 µM
fraction unbound [3]: 0.001
SMILES: CC[C@H](C)[C@H](NC(=O)[C@H](CCCNC(=N)N)NC(=O)[C@H](CCCNC(=N)N)NC(=O)[C@H](CCCNC(=N)N)NC(=O)[C@H](CC(C)C)NC(=O)[C@H](C)NC(C)=O)C(=O)NC1(C)CCCC=CCCCC(C)(C(=O)N[C@@H](Cc2c[nH]cn2)C(=O)N[C@@H](Cc2c[nH]cn2)C(=O)N[C@@H](CO)C(=O)N[C@H](C(N)=O)[C@@H](C)O)NC(=O)[C@H](C)NC(=O)[C@H](CS)NC(=O)[C@H](CC(C)C)NC1=O (stereo partly drawn) [Compound 19, Ac- ALRRRI$LCA$HHST-NH2] (Ac-ALRRRI[ξαMeNle(6-ylidene)]LCA[ξαMeNle(6-ylidene)]HHST-NH2; staple 7-11)
